Results on one compound are retold here after ChEMBL document CHEMBL5252581, “Using a Bioactive Eremophila-Derived Serrulatane Scaffold to Generate a Unique Carbamate Library for Anti-infective Evaluations” (J Nat Prod, 2023).

The test system of series [1] is Haemonchus contortus. Nature of the series: Anthelmintic activity against fourth stage larvae of Haemonchus contortus assessed as induction of skinny phenotype at 100 uM measured after 7 days relative to control. Format: functional. To be noted: time 7 day.
The test system of series [2] is Human immunodeficiency virus 1. Description: Reversal of HIV-1 latency infected in GFP-fused human J-Lat 10.6 cells assessed as inhibition of 160 nM PMA-induced HIV production at 100 ug/ml incubated for 24 hrs by flow cytometry analysis relative to control. In kind it is functional. To be noted: Human immunodeficiency virus 1, J-Lat 10.6.
In series [3] the test system is Plasmodium falciparum. Description: Antimalarial activity against multidrug resistant Plasmodium falciparum Dd2 assessed as parasite growth inhibition at 80 uM incubated for 72 hrs by DAPI staining method. Format: functional.
Series [4] concerns Human immunodeficiency virus 1. Description: Reversal of HIV-1 latency infected in GFP-fused human J-Lat 10.6 cells assessed as inhibition of 50 nM PMA-induced HIV production by flow cytometry analysis. In kind it is functional, organism-based. To be noted: Human immunodeficiency virus 1, J-Lat 10.6.
In series [5] the test system is Plasmodium falciparum. Nature of the series: Antimalarial activity against chloroquine sensitive Plasmodium falciparum 3D7 assessed as parasite growth inhibition at 80 uM incubated for 72 hrs by DAPI staining method. Format: functional.
Series [6] relates to Haemonchus contortus. Nature of the series: Anthelmintic activity against third stage larvae of Haemonchus contortus assessed as reduction in larval motility measured at 168 hrs by microscope based analysis. In kind it is functional, organism-based.
The test system of series [7] is Haemonchus contortus. Description: Anthelmintic activity against fourth stage larvae of Haemonchus contortus assessed as midbody width of L4 larvae measured after 7 days by microscopic analysis (reference value: 16.3+/-1.5 uM). In kind it is functional. To be noted: time 7 day.
Series [8] concerns Haemonchus contortus. Description: Anthelmintic activity against Haemonchus contortus assessed as induction of skinny phenotype at 50 uM measured at 168 hrs by microscope based analysis. In kind it is functional.
The test system of series [9] is Haemonchus contortus. Description: Anthelmintic activity against Haemonchus contortus assessed as inhibition of L4 development at 50 uM measured at 168 hrs by microscope based analysis relative to control. In kind it is functional.
Series [10] in a line: Cytotoxicity against HEK293 cells assessed as inhibition of cell growth at 80 uM incubated for 72 hrs by alamar blue dye based fluorescence assay relative to control. To be noted: human. In kind it is toxicity.
For series [11], the system named is Haemonchus contortus. Description: Anthelmintic activity against third stage larvae of Haemonchus contortus assessed as reduction in larval motility at 50 uM measured at 168 hrs by microscope based analysis relative to control. More on the design: scale not given: the % may be the effect or the level left. Format: functional.
Series [12] has as its system Haemonchus contortus. Description: Anthelmintic activity against fourth stage larvae of Haemonchus contortus assessed as induction of skinny phenotype measured after 7 days. To be noted: 168 h. Format: functional, organism-based.
Series [13] deals with Human immunodeficiency virus 1. Description: Reversal of HIV-1 latency infected in GFP-fused human J-Lat 10.6 cells assessed as inhibition of 160 nM PMA-induced HIV production incubated for 24 hrs by flow cytometry analysis. Format: functional, organism-based. To be noted: Human immunodeficiency virus 1, J-Lat 10.6, 24 h.

Molecules are shown by their SMILES. Bounds are passed on as bounds.

As to `COC(=O)c1cc2c(c(OC)c1OC)[C@H](C)C[C@@H](O)[C@H]2[C@@H](C)CCC=C(C)C`, the Activity in series [1] was found to be 78.4%; in series [7], 8.8 µM; in series [8] it was 59.1%; in series [11] it was 28.3%. In addition, the inhibition at 100 µg/mL in series [2] worked out at 66.5%. Besides, the inhibition at 80 µM in series [3] and in [5] was above 41% each time. In addition, the results for the concentration giving a half-maximal response (EC50) in series [4] and in series [13] were 38.3 µM and 146 µM, respectively. Further, the IC50 in [6] stood at 4.9 µM; in series [12] it was 13.5 µM. For the same compound, the inhibition at 50 µM in series [9] amounted to 5.3%. For the same compound, the inhibition at 72 h, 80 µM in [10] is 4%.
